Experiment [1] has as its system Differentiation of primary naïve T-cells into Th17 cells. The experiment can be described thus: Inhibition of Th17 differentiation of primary naïve T-cells by halofuginone analogs. The format is cell-based, murine. Details: key: “+++” vs. “++” vs. “+” in general denotes ˜4-fold differences in potency; “+++” vs. “++” vs. “+” in general denotes ˜4-fold differences in potency; “+++” vs. “++” vs. “+” in general denotes ˜4-fold differences in potency; “−” denotes no activity at any dose tested, up to 1000× the effective dose of halofuginone. The conditions noted are these: T-cell receptor stimulation+IL-6+TGFb. The method, then:
Naïve T-cells were stimulated to differentiate in the presence or absence of 10 nM halofuginone, with 1 mM of the indicated amino acids added to the medium, and stained for Th17 differentiation on day 4. Naïve murine T cells were activated in the presence or absence of TGFβ plus IL-6 as indicated, expanded in for 4 days and restimulated with PMA and ionomycin for intracellular cytokine staining. […] Bars indicate percentage of cells differentiation as Th17 as indicated by IL17 expression.
The effect of different halofuginone and analogs thereof on differentiation of naïve T-cells was assayed as described in legend for FIG. 4 above. Differentiation of primary naïve T-cells into Th17 cells following T-cell receptor stimulation+IL-6+TGFb. “+++” vs. “++” vs. “+” in general denotes ˜4-fold differences in potency. “−” denotes no activity at any dose tested, up to 1000× the effective dose of halofuginone.

The test system of experiment [2] is human CD4+ T cells (CD4+ CD45RO+). Kind of experiment: IL-17 and IFNγ expression by human memory CD4+ T cells co-cultured with monocytes. The format is cell-based. The settings on record: 100 nM HF; expanded for 6 days. The method, then:
FIG. 5F is a set of FACS analyses of purified primary human memory T cells (CD4^+ CD45RO^+) activated in co-culture with CD14^+ monocytes and treated with DMSO, 100 nM HF or 100 nM MAZ1310. T cells were expanded for 6 days and intracellular cytokine expression was determined following restimulation with PMA plus ionomycin.
In light of reports that IL-17 expression may be differentially regulated in murine versus human T cells (Manel et al., Nat. Immunol. 9:641, 2008; Wilson et al., Nat. Immunol. 8:950, 2007; Acosta-Rodriguez et al., Nat. Immunol. 8:942, 2007), HF modulation of IL-17 expression by human CD4^+ T cells was investigated. […] Therefore, HF selectively limits IL-17 expression in both human and mouse T cells.
Primary murine T and B cells were purified by cell sorting. CD4^+ CD25^− T cells were positively selected using CD4 dynabeads and detachabeads (Dynal, Oslo, Norway) per manufacturers instructions followed by nTreg depletion using a CD25 microbead kit (Miltenyi biotech, Auburn, Calif.). Naïve (CD4^+ CD62Lhi CD44lo Foxp3gfp- or CD4^+ CD62Lhi CD44lo CD25^−) T cells were purified from Foxp3gfp or Foxp3ko mice, respectively, by FACS sorting. […] Resting human CD4^+ T cells were isolated from PBMC of healthy human donors using Dynal CD4 Positive Isolation Kit (Invitrogen, Carlsbad, Calif.) as previously described (Sundrud et al., Blood 106:3440, 2005). […]

For the next experiment, the system named is adjuvant-driven EAE. The experiment can be described thus: Adjuvant-driven experimental autoimmune encephalomyelitis (EAE), MOG33-55 immunization. The format is in vivo, mice. The source says: The ability of systemic HF treatment to block IL-17 expression and associated autoimmune inflammation in vivo was examined using two distinct models of experimental autoimmune encephalomyelitis (EAE). […] The second model, a passive model of EAE induction, is initiated by the transfer of myelin proteolipid protein (PLP)-reactive T cells into lymphopenic hosts.
Adjuvant-driven EAE was induced in 8 week-old wild-type B6 mice purchased from Charles River laboratories (Kingston, N.Y.) by subcutaneous injection of […] peptide emulsified in Incomplete Freund's Adjuvant (IFA) plus 5 mg/ml heat-killed M. tuburculosis (BD Biosciences) in both dorsal flanks as described in Veldhoen et al. (Nat. Immunol. 7(11):1151-1156, 2006).
Mice were injected daily with HF (2 μg/mouse) or vehicle control (DMSO) i.p. Clinical signs of EAE were assessed according to the following score: 0, no signs of disease; 1, flaccid tail; 2, weak gait/hind limb paresis; 3, hind limb paralysis; 4, tetraplegia; 5, moribund. Cytokine production during EAE was determined either in peripheral T cells isolated from spleen or lymph nodes of mice prior to disease onset (day 6-10) or in mononuclear cells isolated from the brain and spinal cords of mice with severe disease (clinical score ≧2) between days 15-20. Briefly, splenocytes were stained for intracellular cytokines following erythrocyte lysis with ammonium chloride buffer. T cells were isolated from brain and spinal cords of mice with active EAE following perfusion with cold PBS. Minced CNS tissue was digested with liberase C1 (0.33 mg/ml, Roche Diagnostics) or collagenase D (10 mg/ml, Roche Diagnostics) at 37° C. for 30-45 minutes. Cell suspensions were passed through 70 μm cell strainers (VWR) and fractionated by 70%/30% Percoll gradient centrifugation. Mononuclear cells were collected from the interphase, washed, and used for intracellular cytokine analysis.

Results on 1 compound are retold here after patent US9284297B2, “Halofuginone analogs for inhibition of tRNA synthetases and uses thereof” (President and Fellows of Harvard College, priority 2008, dated 2016).

Take `O=C(CC1NCCCC1O)Cn1cnc2cc(Br)c(Cl)cc2c1=O` (stereo not shown) [Compound 1, 7-bromo-6-chloro-3-[3-(3-hydroxy-2-piperidinyl)-2-oxopropyl]-4(3H)-quinazolinone]: in experiment [1], the “Inhibition of Th17 differentiation” value is given as “+++”. Further, in experiment [2], the “IFNγ expression by human T cells” value is “essentially unaffected”; the “IL-17 expression by human T cells” value is “greatly reduced both the percentage of human T cells expressing IL-17 and the amount of IL-17 produced”. Besides, the “IL-17 and IFNγ expression in T cells of lymph nodes and CNS” value in the experiment on adjuvant-driven EAE (2 μg HF daily i.p.) is listed as “impaired IL-17 production but did not affect IFNγ expression”. In the experiment with adjuvant-driven EAE (2 μg HF daily, ˜0.1 mg/kg, i.p.), the “EAE disease severity and frequency of onset” value is “significantly reduced both the severity of adjuvant-driven EAE disease and frequency of disease onset”. The “EAE, HF not introduced until day 10 following immunization” value in the experiment with adjuvant-driven EAE (treatment from day 10) is “controls autoimmune inflammation even after inflammatory pathogenesis is evident”. Besides, in the experiment on adjuvant-driven EAE (treatment until day 10), the “EAE, HF injection terminated at day 10 following immunization” value was “exerts a protective effect that extends well beyond the time of treatment”.
